Data on 13 compounds can be found in ChEMBL document CHEMBL1201862, “PubChem BioAssay data set” (2004).

Calls of active or inactive are those of the source. Some results are limits rather than exact numbers.

Series [1] deals with G-protein coupled receptor 55 (Homo sapiens, UniProt Q9Y2T6). The series can be described thus: GPR55 antagonists blocking LPI-driven arrestin recruitment, primary screen, imaging, U2OS, beta-arrestin-GFP, LPI agonist (AID 2013).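 Note: antagonist potency measured as reduced agonist-driven arrestin aggregation.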 Type of series: functional. (Activated receptors often draw arrestin, which recruitment assays turn into a signal.)
Series [2] addresses DNA damage-inducible transcript 3 protein (Mus musculus, UniProt P35639). Type of series: functional, Cricetulus griseus.
Series [3] deals with T1, Sphingosine 1-phosphate receptor 4 (Homo sapiens, UniProt O95977).
T1 sequence (O95977 whole entry): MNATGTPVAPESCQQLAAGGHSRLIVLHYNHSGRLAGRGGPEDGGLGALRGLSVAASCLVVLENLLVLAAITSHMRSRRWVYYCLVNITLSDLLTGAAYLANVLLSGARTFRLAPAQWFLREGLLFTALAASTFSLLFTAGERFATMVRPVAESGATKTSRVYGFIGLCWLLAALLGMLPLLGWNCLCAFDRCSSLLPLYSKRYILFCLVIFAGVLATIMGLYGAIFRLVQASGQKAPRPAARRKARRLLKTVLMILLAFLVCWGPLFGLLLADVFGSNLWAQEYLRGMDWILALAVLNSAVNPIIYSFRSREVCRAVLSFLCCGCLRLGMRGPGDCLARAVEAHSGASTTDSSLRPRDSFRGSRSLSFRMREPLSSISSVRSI
The series can be described thus: Fluorescence dose response cell-based high throughput screening assay for agonists of the Sphingosine 1-Phosphate Receptor 4 (S1P4). [Related pubchem assays: 1509 (Primary screen.), 1523 (Confirmation screen in triplicates.)]. Type of series: functional.

Series [4] addresses Sphingosine 1-phosphate receptor 1 (Homo sapiens, UniProt P21453). Briefly: Fluorescence-based counterscreen assay for S1P4 agonists: Cell-based dose response high throughput screening assay to identify agonists of the Sphingosine 1-Phosphate Receptor 1 (S1P1). [Related pubchem assays (depositor defined):AID1509, AID1523, AID1801, AID463107, AID463118, AID463119, AID463122, AID463123, AID463129, AID463225, AID504400, AID504460]. Type of series: functional.

The target in series [5] is T2, E3 ubiquitin-protein ligase XIAP (Homo sapiens, UniProt P98170). Briefly: Counter Screen using XIAP-Bir3 for Chemical Antagonists of Bir1/2 domains of IAP-family anti-apoptotic proteins. [Related pubchem assays (depositor defined):AID1018, AID1449, AID1514, AID1638, AID1749, AID1750, AID488957, AID488963]. Background: A counterscreen serves to expose hits that act by an unwanted route or on another target.

Series [6] deals with T2, E3 ubiquitin-protein ligase XIAP. The series can be described thus: XIAP antagonists, biochemical, IAP family, fluorescence polarization (AID 1018). Type of series: functional.
In series [7] the target is Glyceraldehyde-3-phosphate dehydrogenase (Homo sapiens, UniProt P04406).
Series [8] addresses T3, Alkaline phosphatase, tissue-nonspecific isozyme (Homo sapiens, UniProt P05186).
T3 sequence (P05186 whole entry): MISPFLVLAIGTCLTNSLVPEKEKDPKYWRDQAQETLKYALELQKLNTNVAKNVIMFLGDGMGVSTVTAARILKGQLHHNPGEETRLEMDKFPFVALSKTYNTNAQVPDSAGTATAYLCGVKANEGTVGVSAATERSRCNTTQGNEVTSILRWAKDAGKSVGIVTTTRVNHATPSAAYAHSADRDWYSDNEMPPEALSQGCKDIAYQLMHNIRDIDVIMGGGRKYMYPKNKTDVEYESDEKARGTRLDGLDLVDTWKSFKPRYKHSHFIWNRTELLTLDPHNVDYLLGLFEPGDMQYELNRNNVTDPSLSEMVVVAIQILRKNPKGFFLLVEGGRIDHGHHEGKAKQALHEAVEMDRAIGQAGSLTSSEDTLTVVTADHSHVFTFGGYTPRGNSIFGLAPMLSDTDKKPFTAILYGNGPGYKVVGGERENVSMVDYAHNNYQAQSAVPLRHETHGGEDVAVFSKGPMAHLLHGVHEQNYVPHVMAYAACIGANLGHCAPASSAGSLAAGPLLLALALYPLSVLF
The series can be described thus: human TNAP enzyme inhibitors, SAR follow-up, biochemical, luminescent, dose response (AID 1056).

The target in series [9] is Alkaline phosphatase, placental type (Homo sapiens, UniProt P05187). The series can be described thus: PLAP enzyme inhibitors, confirmation, biochemical, luminescence (AID 1512). Type of series: functional.
Series [10] has as its target T4, Polyadenylate-binding protein 1 (Homo sapiens, UniProt P11940). Briefly: PABP1 MLLE–PAM2 interaction inhibitors, dose response, miRNA deadenylation inhibitor project, biochemical, fluorescence polarization, Cy5-PAM2 peptide, secondary (AID 602260). Type of series: functional. As to conditions: read-out: IC50_Mean.
Series [11] concerns the target T4, Polyadenylate-binding protein 1. Briefly: PABP1 MLLE–PAM2 binding inhibitor potency, dose response, biochemical, fluorescence polarization, FITC-PAM2 peptide (AID 602259). To be noted: read-out: IC50_Mean. Type of series: functional.
Series [12] deals with Lysine-specific demethylase 4C (Homo sapiens, UniProt Q9H3R0). Briefly: GASC-1 (JMJD2C) histone demethylase inhibitors, dose response, biochemical, DELFIA europium, cherry-picked samples (AID 488835). Type of series: functional.
Series [13] deals with Nucleotide-binding oligomerization domain-containing protein 1 (Homo sapiens, UniProt Q9Y239). Briefly: NOD1 signaling inhibitors, SAR follow-up, revised (AID 2333). Type of series: functional.
The target in a further series is Tumor necrosis factor (Homo sapiens, UniProt P01375). The series can be described thus: TNFa-triggered NF-kB activation inhibitors, SAR follow-up, cell-based, revised (AID 2337). Type of series: functional.
For series [14], the target named is Nucleotide-binding oligomerization domain-containing protein 2 (Homo sapiens, UniProt Q9HC29). The series can be described thus: PubChem AID 2334. Type of series: functional.
A further series deals with HEK293. The series can be described thus: cells. To be noted: Homo sapiens.
The next series deals with Cytochrome P450 2D6 (Homo sapiens, UniProt P10635).
Series [15] concerns the target T5, Heat shock factor protein 1 (Mus musculus, UniProt P38532).
T5 sequence (P38532 whole entry): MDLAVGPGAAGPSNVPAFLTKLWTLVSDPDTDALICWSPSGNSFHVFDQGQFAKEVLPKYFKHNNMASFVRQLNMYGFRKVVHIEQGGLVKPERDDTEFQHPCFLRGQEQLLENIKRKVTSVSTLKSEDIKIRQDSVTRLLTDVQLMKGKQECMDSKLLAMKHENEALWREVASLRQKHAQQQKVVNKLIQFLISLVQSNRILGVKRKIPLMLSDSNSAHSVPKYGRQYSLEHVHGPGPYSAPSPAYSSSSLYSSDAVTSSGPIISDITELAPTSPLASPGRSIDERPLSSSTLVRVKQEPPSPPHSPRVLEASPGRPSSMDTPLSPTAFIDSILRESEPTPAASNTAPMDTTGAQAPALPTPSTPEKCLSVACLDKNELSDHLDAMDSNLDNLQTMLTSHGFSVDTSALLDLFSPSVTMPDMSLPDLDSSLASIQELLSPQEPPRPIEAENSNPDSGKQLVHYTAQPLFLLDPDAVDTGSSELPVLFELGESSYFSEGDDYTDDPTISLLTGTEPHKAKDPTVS
Briefly: inhibition of MG132-induced HSE-luciferase signal, confirmation, cell-based, NIH3T3, luminescence, dose retest (AID 2382).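 Note: NIH3T3 fibroblasts with HSF1-driven luciferase reporter stressed by proteasome inhibitor MG132; luminescence from HSF1-driven luciferase expression after 8 hours of MG132 stress.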 Type of series: functional.

The next series addresses Cytochrome P450 2C19 (Homo sapiens, UniProt P33261). Briefly: Cytochrome panel assay with activity outcomes. Panel member name: p450-cyp2c19 Compounds with AC50 equal or less than 10 uM are considered active. Type of series: functional.
The next series addresses Cytochrome P450 2C9 (Homo sapiens, UniProt P11712).
A further series has as its target T6, Cytochrome P450 1A2 (Homo sapiens, UniProt P05177).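 Note: PubChem cytochrome P450 panel assay, CYP1A2 panel member.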
T6 sequence (P05177 whole entry): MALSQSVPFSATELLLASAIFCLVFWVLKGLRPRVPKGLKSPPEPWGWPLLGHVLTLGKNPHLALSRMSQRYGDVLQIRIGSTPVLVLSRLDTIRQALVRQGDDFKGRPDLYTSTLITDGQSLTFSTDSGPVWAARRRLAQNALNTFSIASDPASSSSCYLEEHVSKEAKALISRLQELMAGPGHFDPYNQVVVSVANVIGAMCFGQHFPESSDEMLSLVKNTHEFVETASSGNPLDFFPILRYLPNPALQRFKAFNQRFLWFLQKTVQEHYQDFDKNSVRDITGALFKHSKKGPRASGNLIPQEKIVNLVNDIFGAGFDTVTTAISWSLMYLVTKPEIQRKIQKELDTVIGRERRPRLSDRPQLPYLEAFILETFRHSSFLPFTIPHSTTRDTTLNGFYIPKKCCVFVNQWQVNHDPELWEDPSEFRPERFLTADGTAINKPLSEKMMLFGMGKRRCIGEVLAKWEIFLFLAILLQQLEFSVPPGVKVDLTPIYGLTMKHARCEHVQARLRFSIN

T2 sequence (P98170 whole entry): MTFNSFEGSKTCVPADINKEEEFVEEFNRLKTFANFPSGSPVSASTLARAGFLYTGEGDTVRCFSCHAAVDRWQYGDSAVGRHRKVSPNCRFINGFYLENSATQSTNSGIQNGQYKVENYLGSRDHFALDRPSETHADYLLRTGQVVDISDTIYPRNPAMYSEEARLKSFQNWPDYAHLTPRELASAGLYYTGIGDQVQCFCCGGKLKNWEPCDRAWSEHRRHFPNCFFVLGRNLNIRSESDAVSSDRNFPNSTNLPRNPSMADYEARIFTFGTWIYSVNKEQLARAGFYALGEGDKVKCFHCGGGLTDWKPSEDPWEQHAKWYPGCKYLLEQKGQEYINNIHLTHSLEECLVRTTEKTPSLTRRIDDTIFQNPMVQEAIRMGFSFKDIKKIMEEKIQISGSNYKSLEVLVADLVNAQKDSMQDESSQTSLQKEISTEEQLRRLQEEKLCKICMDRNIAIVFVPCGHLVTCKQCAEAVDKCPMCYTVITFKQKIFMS
Chain of Alkaline phosphatase, placental type (P05187 whole entry): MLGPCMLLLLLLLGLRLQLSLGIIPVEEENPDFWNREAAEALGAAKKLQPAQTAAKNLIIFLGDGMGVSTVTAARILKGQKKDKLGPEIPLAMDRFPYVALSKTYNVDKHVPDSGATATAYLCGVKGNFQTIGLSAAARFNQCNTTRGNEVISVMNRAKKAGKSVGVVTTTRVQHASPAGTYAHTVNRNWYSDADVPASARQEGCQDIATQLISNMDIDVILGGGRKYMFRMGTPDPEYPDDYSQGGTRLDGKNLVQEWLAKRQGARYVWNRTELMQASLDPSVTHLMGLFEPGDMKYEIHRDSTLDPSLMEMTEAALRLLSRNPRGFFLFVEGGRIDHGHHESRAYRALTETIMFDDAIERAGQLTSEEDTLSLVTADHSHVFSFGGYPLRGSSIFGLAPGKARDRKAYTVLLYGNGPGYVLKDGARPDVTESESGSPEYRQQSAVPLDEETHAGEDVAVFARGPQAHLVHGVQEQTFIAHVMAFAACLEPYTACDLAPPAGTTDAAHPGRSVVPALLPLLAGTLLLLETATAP
Chain of DNA damage-inducible transcript 3 protein (P35639 whole entry): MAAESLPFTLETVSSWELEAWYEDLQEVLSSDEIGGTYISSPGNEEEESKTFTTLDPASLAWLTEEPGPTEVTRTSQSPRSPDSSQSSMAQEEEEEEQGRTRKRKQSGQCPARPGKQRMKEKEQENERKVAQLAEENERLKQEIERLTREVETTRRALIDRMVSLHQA
Chain of Cytochrome P450 2D6 (P10635 whole entry): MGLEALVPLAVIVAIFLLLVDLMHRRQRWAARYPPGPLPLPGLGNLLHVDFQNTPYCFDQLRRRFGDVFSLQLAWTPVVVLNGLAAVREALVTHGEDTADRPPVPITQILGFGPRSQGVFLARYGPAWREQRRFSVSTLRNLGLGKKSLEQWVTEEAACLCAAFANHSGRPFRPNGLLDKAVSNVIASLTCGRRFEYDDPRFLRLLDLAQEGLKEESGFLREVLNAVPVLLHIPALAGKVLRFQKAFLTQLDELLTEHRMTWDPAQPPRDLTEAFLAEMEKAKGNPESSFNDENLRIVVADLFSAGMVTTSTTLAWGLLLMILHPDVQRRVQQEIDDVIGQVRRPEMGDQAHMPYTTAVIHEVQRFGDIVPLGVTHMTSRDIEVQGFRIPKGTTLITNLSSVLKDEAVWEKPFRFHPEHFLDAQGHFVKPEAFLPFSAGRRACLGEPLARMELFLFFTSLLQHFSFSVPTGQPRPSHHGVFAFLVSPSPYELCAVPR
T4 sequence (P11940 whole entry): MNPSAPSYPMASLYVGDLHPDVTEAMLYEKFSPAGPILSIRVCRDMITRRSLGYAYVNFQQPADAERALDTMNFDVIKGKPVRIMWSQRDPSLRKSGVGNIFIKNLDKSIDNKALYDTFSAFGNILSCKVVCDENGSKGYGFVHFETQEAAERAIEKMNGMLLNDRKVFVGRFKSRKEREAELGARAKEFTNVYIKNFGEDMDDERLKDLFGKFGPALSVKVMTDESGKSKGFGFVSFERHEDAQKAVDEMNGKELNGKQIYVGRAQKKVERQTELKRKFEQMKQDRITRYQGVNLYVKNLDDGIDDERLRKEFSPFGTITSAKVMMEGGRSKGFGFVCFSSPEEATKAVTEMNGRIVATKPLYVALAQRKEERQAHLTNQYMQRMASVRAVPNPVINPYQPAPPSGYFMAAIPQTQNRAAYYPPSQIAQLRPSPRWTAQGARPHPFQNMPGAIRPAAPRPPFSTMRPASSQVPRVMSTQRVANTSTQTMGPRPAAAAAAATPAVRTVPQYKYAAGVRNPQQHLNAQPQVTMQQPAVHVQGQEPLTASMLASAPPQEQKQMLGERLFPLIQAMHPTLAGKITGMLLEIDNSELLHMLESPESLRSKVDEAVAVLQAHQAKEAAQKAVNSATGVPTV
Chain of Sphingosine 1-phosphate receptor 1 (P21453 whole entry): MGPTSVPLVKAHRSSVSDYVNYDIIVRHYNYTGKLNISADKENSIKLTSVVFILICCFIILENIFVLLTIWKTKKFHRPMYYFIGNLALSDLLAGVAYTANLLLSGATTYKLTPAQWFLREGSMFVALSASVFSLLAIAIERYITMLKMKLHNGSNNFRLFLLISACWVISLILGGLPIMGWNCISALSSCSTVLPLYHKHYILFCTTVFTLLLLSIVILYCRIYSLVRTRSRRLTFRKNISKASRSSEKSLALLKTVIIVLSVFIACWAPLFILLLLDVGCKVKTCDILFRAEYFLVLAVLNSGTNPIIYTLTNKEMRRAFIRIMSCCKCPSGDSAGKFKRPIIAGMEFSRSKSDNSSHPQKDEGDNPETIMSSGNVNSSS
Chain of Nucleotide-binding oligomerization domain-containing protein 2 (Q9HC29 whole entry, the tested form may be a part): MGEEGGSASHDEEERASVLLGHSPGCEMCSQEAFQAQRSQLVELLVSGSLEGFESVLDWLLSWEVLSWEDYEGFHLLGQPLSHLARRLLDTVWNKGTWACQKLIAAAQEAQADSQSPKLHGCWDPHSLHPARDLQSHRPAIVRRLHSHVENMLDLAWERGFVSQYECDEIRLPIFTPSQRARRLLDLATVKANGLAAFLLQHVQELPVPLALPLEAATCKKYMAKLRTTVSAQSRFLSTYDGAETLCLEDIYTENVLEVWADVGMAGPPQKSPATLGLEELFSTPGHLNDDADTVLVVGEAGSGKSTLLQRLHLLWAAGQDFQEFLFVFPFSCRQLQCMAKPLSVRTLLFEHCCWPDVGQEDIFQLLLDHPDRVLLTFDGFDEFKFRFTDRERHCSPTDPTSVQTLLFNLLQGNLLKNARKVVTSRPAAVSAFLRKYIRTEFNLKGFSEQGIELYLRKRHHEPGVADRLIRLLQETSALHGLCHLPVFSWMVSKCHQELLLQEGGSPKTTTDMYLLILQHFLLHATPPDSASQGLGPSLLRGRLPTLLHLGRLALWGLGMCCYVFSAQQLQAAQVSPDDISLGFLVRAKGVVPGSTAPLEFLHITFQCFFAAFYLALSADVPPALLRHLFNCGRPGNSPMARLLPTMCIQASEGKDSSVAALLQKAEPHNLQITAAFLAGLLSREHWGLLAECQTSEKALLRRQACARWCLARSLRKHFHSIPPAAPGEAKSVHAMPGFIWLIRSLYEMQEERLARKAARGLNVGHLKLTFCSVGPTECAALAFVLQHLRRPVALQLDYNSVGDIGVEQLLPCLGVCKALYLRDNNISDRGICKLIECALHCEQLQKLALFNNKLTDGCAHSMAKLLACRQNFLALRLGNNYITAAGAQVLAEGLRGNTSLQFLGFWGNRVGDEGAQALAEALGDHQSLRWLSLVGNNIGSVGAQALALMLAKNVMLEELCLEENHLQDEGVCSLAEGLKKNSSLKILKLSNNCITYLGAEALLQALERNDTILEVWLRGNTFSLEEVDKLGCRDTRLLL
Chain of Nucleotide-binding oligomerization domain-containing protein 1 (Q9Y239 whole entry, the tested form may be a part): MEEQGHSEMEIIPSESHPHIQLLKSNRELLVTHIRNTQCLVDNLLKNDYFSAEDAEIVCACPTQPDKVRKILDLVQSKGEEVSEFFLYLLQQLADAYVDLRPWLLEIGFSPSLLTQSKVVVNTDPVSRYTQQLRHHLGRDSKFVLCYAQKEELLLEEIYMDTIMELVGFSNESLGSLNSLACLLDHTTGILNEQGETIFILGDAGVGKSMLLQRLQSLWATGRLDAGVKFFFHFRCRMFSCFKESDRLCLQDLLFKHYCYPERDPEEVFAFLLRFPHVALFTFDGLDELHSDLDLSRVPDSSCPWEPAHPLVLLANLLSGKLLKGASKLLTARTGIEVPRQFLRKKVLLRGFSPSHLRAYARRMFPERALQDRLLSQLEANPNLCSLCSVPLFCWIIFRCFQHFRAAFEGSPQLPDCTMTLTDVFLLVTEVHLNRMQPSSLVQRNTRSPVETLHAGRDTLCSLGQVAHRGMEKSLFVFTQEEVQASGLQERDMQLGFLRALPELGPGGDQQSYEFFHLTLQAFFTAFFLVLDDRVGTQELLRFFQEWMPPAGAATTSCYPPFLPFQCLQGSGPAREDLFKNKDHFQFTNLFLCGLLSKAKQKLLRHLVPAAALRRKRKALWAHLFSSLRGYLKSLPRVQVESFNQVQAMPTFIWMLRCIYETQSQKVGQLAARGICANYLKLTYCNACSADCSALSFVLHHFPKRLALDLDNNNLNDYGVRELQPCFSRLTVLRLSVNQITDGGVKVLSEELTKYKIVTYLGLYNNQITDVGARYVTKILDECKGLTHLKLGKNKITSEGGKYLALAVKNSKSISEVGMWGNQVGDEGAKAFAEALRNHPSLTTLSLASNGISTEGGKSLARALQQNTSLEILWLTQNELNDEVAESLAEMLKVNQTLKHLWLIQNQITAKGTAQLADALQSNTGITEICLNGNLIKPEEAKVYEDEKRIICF
Chain of Tumor necrosis factor (P01375 whole entry, the tested form may be a part): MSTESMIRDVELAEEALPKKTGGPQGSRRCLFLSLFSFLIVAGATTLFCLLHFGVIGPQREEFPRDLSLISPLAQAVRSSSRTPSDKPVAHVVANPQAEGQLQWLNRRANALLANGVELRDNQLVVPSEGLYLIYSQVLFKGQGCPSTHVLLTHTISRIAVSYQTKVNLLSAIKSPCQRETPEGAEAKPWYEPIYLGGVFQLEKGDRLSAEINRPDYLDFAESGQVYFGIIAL

As to `O=C(O)c1ccc(Cl)c(S(=O)(=O)Nc2ccc(OCc3ccccc3)cc2)c1`, the IC50 in [1] is 4.05 µM (active).
With `COc1ccc(CNc2oc(-c3cccc4ccccc34)nc2C#N)cc1`, the “Absolute IC50 (CHOP)” value in series [2] was found to be 10 µM.
Take `CNC(=O)c1[nH]cnc1C(=O)N[C@@H](Cc1ccccc1)C(=O)OCc1ccccc1`: the EC50 – broadly, the concentration giving half of the maximal effect – was > 16.6 µM (not active) in series [3] and 3.13 µM (active) in series [4].
In the case of `O=C(NNc1ccccc1[N+](=O)[O-])Nc1ccc(Cl)c(Cl)c1`, the “Absolute IC50 (CHOP)” value in series [2] is 10 µM.
Regarding `CCCS(=O)(=O)N1CCN(C(=O)c2ccc(-c3ccccc3)cc2)CC1`, the values for the IC50 in [5] and in [6] were > 100 µM (inactive) and > 100 µM (not active), respectively.
With `COc1ccc(CCc2nc(N)nn2-c2ccccc2)cc1OC`, the IC50 in series [7] was > 100 µM (not active); in series [8] it was > 100 µM (inactive); in series [9], > 100 µM (inactive).
On to `CC1CN(S(=O)(=O)c2cccc(C(=O)Nc3ccc(S(=O)(=O)Nc4ncccn4)cc3)c2)CC(C)O1` (centres undefined), for which the IC50 in series [5] was > 100 µM (inactive); in series [6] it was > 100 µM (not active).
Turning to `O=C(CSc1nc(O)c(Cc2ccccc2)c(=O)[nH]1)c1ccccc1`, the IC50 in series [10] was > 66 µM (inactive); in [11] it was 52.5 µM (inactive). Further, the AC50 (in general, the midpoint of the concentration-response curve, whichever way the signal moves) in series [12] was 16.9 µM (active).
Consider `CCn1c(SCC(=O)c2ccc(O)c(O)c2)nnc1-c1ccc(Cl)cc1`, for which the IC50 in series [8] is > 100 µM (inactive); in series [9], 8.76 µM (active).
In the case of `O=C(Nc1ccc(CN2CCc3ccccc3C2)cc1)c1ccc(Cl)cc1`, the IC50 (in series [13]; at Tumor necrosis factor; in series [14]; in the series with HEK293) was > 20 µM (inactive) in each case.
As to `CCS(=O)(=O)N1CCCC(C(=O)NCCCOC(C)C)C1` (centres undefined), the half-maximal activity concentration (AC50) entry at Cytochrome P450 2D6 was “inconclusive”.
With `C/N=C1/S/C(=C\c2cc(C)n(-c3ccccc3F)c2C)C(=O)N1C`, the half-maximal effective concentration (EC50) was 0.844 µM (active) in series [3], < 0.16 µM (active) in series [15] and 1.18 µM (active) in series [4].
For the compound `CCCSc1ccc2nc(NC(=O)OC)[nH]c2c1` [ALBENDAZOLE], the AC50 result at Cytochrome P450 2C19 is “inactive”; on Cytochrome P450 2D6, “inactive”; on Cytochrome P450 2C9, “inactive”; on Cytochrome P450 1A2, 0.398 µM (active).
